Experimental data published in US12318399B2 (priority 2022, dated 2025).
Like-named read-outs stand apart in the source and are kept apart here.

Experiments:
[1] = tested on: ovarian cancer organoids; experiment: Patient-derived ovarian cancer organoid cell viability; type: cell-based, human; settings: for cell viability: chemo sensitive and chemo resistant organoids, FIGS. 11A-11D
Experimental: (§1) Development of patient derived organoids: The patient derived organoids were created as follows: the patient's tissue sample was collected after surgery and bathed in Hank's Balanced Salt Solution (HBSS) (Hyclone, SH30031.02) with 1% Pencillin/Streptomycin (P/S) (Life Technologies, 15070-063) on ice. Then the sample was washed three times with Dulbecco's phosphate-buffered saline (DPBS) and 1% P/S on a shaker (70 rpm) for 15 minutes each. The tissue was then transferred into a presterilized cell-culture hood to mince it finely with a sterile blade. All minced parts were then digested in an enzyme named Accumax (Innovative Cell Technologies Inc., AM105-500) for 2.5 hours at room temperature. After 2.5-hour incubation, the whole digested tissue mince was transferred in another enzyme, TrypLE express, (Gibco, 12604-021) for another 45 minutes in a 37° C. water bath. During this time the solution was continuously agitated in every 5 minutes interval. After 45 minutes of incubation, the solutions were passed through 70 μm filter on a 50 mL falcon tube. The filter was removed, and the flowthrough with the cells was collected in 5% FBS AD+++ medium (comprising 1% TS, 2% B27, 1% N2, 25% WRN, hegf 50 ng/ml, hfgf 10-100 ng/ml, Nicotinamide 1 mM, N-acetyl cysteine 1.25 mM, Primocin 0.2%, Estrogen 2 nm, A8301 0.5 μM, and Y27632). This cell suspension was centrifuged at 1000 rpm for 5 minutes at room temperature to get the cell pellet for counting. Upon checking under hemocytometer cell number was calculated and processed for organoid culture. After checking under a microscope if we found RBC contamination in the final cell suspension, then we used Red Blood Cell Lysis Buffer (Roche Diagnostics, 11814389001) to get rid of the excess RBC. Human patient cells from endometrial cancer were grown and maintained in a humidified chamber at 37° C. with 5% CO2.
For the Ascites samples, we centrifuged the ascites fluid at 1000 rpm for 10 minutes at room temperature to get the cell suspension. The cell suspension was then treated with Red Blood Cell Lysis Buffer (Roche Diagnostics, 11814389001) to remove the RBC from the final cell suspension. Once samples were created, they were ready for testing, which included treating the organoids with cannabis extract. Additional cells were cultured in the same manner as above.
(§2) To culture patient-derived organoids, 2-3×10^3 cells were plated in a prewarmed (37° C.) 96-well plate in […] of Matrigel (5% FBS AD+++ medium) per well. Individual patient cell organoid was cultured separately in different plates. Individual patient cells were handled separately to reduce the chance of cross-contamination. After mixing cells with Matrigel, […] droplets were placed in wells and put in a 37° C. incubator with 5% CO2 for 30 minutes. Upon solidification of the Matrigel droplet with cells inside, the plate was placed inside a sterile hood and immersed the Matrigel droplet in 200 μL of organoid growth media. Cells were allowed to grow into mature organoids for 14 days. […] All treatments were done in triplicate, including vehicle-only controls (Dimethyl sulfoxide in culture medium at the highest concentration used for drug treatments).
(§3) Note: IC50 is the 50% inhibitory concentration which is conventionally used to determine drug potency with cell-based cytotoxicity tests. Similarly, all of the antioxidants were tested under the same protocol.
To assess the cell viability in organoids after treatments, CellTiter-Glo® Luminescent Assay (Promega #G7572) was used. In brief, on day 14 of organoid culture, the matrigel droplet in each well with organoid inside was immersed in 100 μL of fresh growth media and 100 μL of CellTiter-Glo® reagent following the manufacturer's guideline. Blank wells containing only media and CellTiter-Glo® reagent (no cells) were also included in each plate. […]

[2] = tested on: patient derived endometrial cancer cells; experiment: Patient-derived xenograft (PDX) mouse model, tumor volume; type: in vivo; settings: monotherapy 30 mg/kg intraperitoneal, by day 14 and at day 21
Experimental: Human patient cells from endometrial cancer were injected subcutaneously into female NOD/SCID gamma mice after resuspending in 100 μL solution. […] Tumor size measured before treatment, followed by twice a week measurement. All treatment group mice were kept alive for up to 10 weeks after drug injection or until the tumor volume grows bigger than 2,500 mm^3.
Tumor size was measured along with body weight at the time of tissue collection. All tumor tissues were removed carefully from the euthanized mouse body. Tumor tissue samples were kept for histology, proteomics, genomics, and other downstream processing. All downstream processing was completed following NCI Patient-Derived Models Repository SOPs. Tumor volume graph will be plotted using GraphPad Prism 9.
The mouse studies utilized intraperitoneal dosing of various formulations of cannabis extracts comprising a known quantity of CBD.

[3] = tested on: endometrial cancer organoids; experiment: Patient-derived endometrial cancer organoid cell viability (CellTiter-Glo); type: cell-based, human
Experimental: as §1, §2, §3
To assess the cell viability in organoids after treatments, CellTiter-Glo® Luminescent Assay (Promega #G7572) was used. In brief, on day 14 of organoid culture, the matrigel droplet in each well with organoid inside was immersed in 100 μL of fresh growth media and 100 μL of CellTiter-Glo® reagent following the manufacturer's guideline. Blank wells containing only media and CellTiter-Glo® reagent (no cells) were also included in each plate. Then the plates were put on a shaker at 110 RPM at room temperature for […] minutes to induce cell lysis, followed by 25 minutes at room temperature to stabilize the luminescent signal. Each step after adding the CellTiter-Glo® reagent was performed in the dark. Luminescence was measured on a FLUOstar OPTIMA plate reader (BMG Lab technologies, Offenburg, Germany). Analysis was performed by normalizing treatment values to the vehicle control and plotting them as a percentage of the vehicle control.

[4] = cited from earlier work
[5] = tested on: chemoresistant EC, which had metastasized; experiment: Testing within human patients; type: in vivo

## C=C(C)[C@@H]1CCC(C)=C[C@H]1c1c(O)cc(CCCCC)cc1O [CBD isolate, cannabidiol]
[1]
  cell viability: dramatically reduce cell viability
[1]; pH 8
  efficacy at killing the organoids compared with native pH: virtually no change
[2]
  tumor volumes: decreased
[3]; 7 or 10 μg/mL, FIGS. 4B and 4C
  response of patient derived organoids: virtually all patients respond
[3]; IC50 of cannabis extract combined with the higher doses of carboplatin
  eradication: ~100%

## C=C(C)[C@@H]1CCC(C)=C[C@H]1c1c(O)cc(CCCCC)cc1O [CBD, cannabidiol]
[4]; coadministration with high fat food
  increase of Cmax: up to 5 fold
[4]; delivery via the nasal mucosa
  Tmax: approximately 10 minutes
[4]; oral-mucosal or sublingual delivery
  maximum plasma concentration (time): 1.6 h
[4]; orally delivered
  maximum plasma concentration (time): 2.5 to 5 h
[5]
  efficacy in human patients: effective in reducing chemoresistant EC

## C=C(C)[C@@H]1CCC(C)=C[C@H]1c1c(O)cc(CCCCC)c(C(=O)O)c1O [CBDA, cannabidiolic acid]
[1]
  cell viability: dramatically reduce cell viability
[2]
  tumor volumes: decreased
[3]; dosing up to 50 μg/mL
  reduction in organoid formation in all patients: ~100%
